Results published in patent publication US20220347144A1, “COMPOSITIONS AND METHODS FOR PREVENTING AND/OR REDUCING WEIGHT GAIN AND ASSOCIATED CONDITIONS” (University of Virginia Patent Foundation, priority 2019, published 2022).

Assays:
C57Bl/6J mice [1] = assay: Liver ceramide and lipid composition by LC-MS/MS in mice on control or high fat diets with or without nervonic acid; assay type: in vivo, mouse
Experimental: (§1) Animals. Animal experiments were approved by the Animal Care and Use Committee of the University of Virginia (Charlottesville, Va., United States of America). C57Bl/6J mice were obtained from Jackson Laboratories (Bar Harbor, Me., United States of America). Mice were group housed in standard cages with up to five mice per cage with a 12 hour dark/light cycle. All mice were weighed once per week. Weekly food consumption was measured, with the amount consumed per cage averaged amongst the mice in the cage. Body composition was determined by use of an ECHOMRI™-100H Body Composition Analyzer (EchoMRI LLC, Houston, Tex., United States of America).
(§2) Diets. Diets were obtained from Research Diets (New Brunswick, N.J., United States of America). The low fat chow was D12450Ji (10 kcal % fat) and the high fat chow was D12492 (60 kcal % fat). These two chows were reformulated by replacing a portion of dietary fat with an ethyl ester of nervonic acid from Nu-Chek Prep (Elysian, Minn., United States of America) to produce isocaloric diets with nervonic acid at 6 g per kg of diet (0.6%). For the three most prevalent fatty acids in these diets: C16 comprised 14.4%, 11.7%, 18.5%, and 18.1%; C18:1 comprised 27.4%, 22.8%, 32%, and 31.4%; and C18:2 comprised 39.6%, 36.2%, 26.9%, and 26.5% of the fatty acid composition of the Cnt, Cnt+NA, HFD, and HFD+NA diets, respectively. Mice were started on diets at ˜8 weeks of age and given ad libitum access.
(§3) Sphingolipid and acylcarnitine measurements by liquid chromatography-mass spectrometry. Sphingolipids were analyzed as described previously (Wijesinghe et al., 2010) for FIG. 1B or with modifications described herein. Liver samples from rats fed a low or high fat diet were obtained from Scot Kimball's laboratory at the Pennsylvania State University (Hershey, Pa.). Mouse liver samples were analyzed with modifications as described previously (Pearson et al., 2020). For FIGS. 1A and 5D, liver homogenates were subjected to lipid extraction and subjected to liquid chromatography-electrospray ionization mass spectrometry was performed on an I-class Acquity with a 2.1 mm×10 cm C18 CSH […] particle size column coupled to an in-line TQ-S mass spectrometer from Waters Corporation (Milford, Mass., United States of America).

HEK293 cells = assay: CerS2 siRNA knockdown in HEK293 cells with nervonic acid treatment, C24:1 ceramide; assay type: cell-based; details: 1 μM NA for 24 hours
Experimental: Cell culture. HEK293 cells were grown in DMEM containing 10% FBS. Cells were transfected with Silencer Select siRNA to CerS2 (s26789) or Silencer Select negative control No. 1 using LIPOFECTAMINE® 3000 brand transfection reagent following the manufacturer's protocol. All culture reagents were obtained from Thermo Fisher Scientific (Waltham, Mass., United States of America). 48 hours post-transfection, cells were treated with vehicle or 1 μM nervonic acid for 24 hours.
as §3

C57Bl/6J mice [2] = assay: Body composition (EchoMRI); assay type: in vivo, mouse
Experimental: as §1, §2

C57Bl/6J mice [3] = assay: Average food consumption over 12 weeks; assay type: in vivo, mouse
Experimental: as §1

C57Bl/6J mice [4] = assay: Plasma insulin (fasting and after IP glucose); assay type: in vivo, mouse; details: for fasting (basal) plasma insulin levels: HFD+NA versus HFD; for fasting (basal) plasma insulin levels / fasting plasma insulin levels: 8 weeks; for increase in insulin after intraperitoneal administration of glucose: HFD+NA, 30 min after IP glucose; for fasting plasma insulin levels: control diet with NA
Experimental: Insulin Tolerance Test (ITT) and Glucose Tolerance Test (GTT) and analysis of blood glucose and plasma insulin. ITT and GTT were performed as described in Lansey et al., 2012. Briefly, for ITT, random-fed mice were given an intraperitoneal injection (IP) of insulin (0.75 U/kg in 0.9% NaCl). Blood glucose levels were determined by a glucometer (Contour Next EZ Blood Glucose Monitoring System, Bayer, Leverkusen, Germany) at the indicated time points after injection. For GTT, mice were fasted for 16 hours prior to testing. D-Glucose, prepared the day before, was administered via an IP injection (1 g/kg), and blood glucose levels were determined by a glucometer at the indicated time points after injection. Plasma insulin levels were determined using a STELLUX® brand Chemi Rodent Insulin ELISA kit (Cat. No. 80-INSMR-CHO1; APLCO, Salem, N.H., United States of America) or an Ultrasensitive Rat/Mouse Insulin ELISA kit, Low Range Assay (Cat. No. 90060; Crystal Chem, Downers Grove, Ill., United States of America). The luminescence assay was conducted using a VICTOR2 Plate Reader (Perkin Elmer, Waltham, Mass., United States of America).
For assessment of insulin, blood was collected with heparinized capillary tubes and subsequently centrifuged to obtain plasma. Insulin levels was then determined using a STELLUX® Chemi Rodent Insulin ELISA kit (Catalog No. 80-INSMR-CHO1, APLCO, Salem, N.H., United States of America) or an Ultrasensitive Rat/Mouse Insulin ELISA kit low range (Cat. No 90060; Crystal Chem, Downers Grove, Ill., United States of America). The luminescence assay was conducted using a VICTOR2 Plate Reader (Perkin Elmer, Waltham, Mass., United States of America).

C57Bl/6J mice [5] = assay: Energy expenditure, respiratory exchange ratio and locomotion in metabolic cages; assay type: in vivo, mouse
Experimental: For determination of energy expenditure, respiratory exchange ratios, and activity, mice were placed in an Oxymax metabolic chamber systems (Comprehensive Laboratory Animal Monitoring System, CLAMS, from Columbus Instruments (Columbus, Ohio, United States of America). Oxygen consumption (V02) and carbon dioxide production (VCO2) were determined for each mouse every 18 minutes over 72 hours with ambulatory activity assessed every minute over this same time period. Only the last two complete light and dark cycles (spanning 48 hours) were used for data analysis. Feces was collected from these studies and shipped to the Mouse Metabolic Phenotyping Core at the University of Texas Southwestern for bomb calorimetry analysis using a Parr 6200 Isoperibol Calorimeter (Parr Instrument Company, Moline, Ill., United States of America).

Substance: (Z)-tetracos-15-enoic acid [NA]
- hepatic C20 and C22-ceramides (C57Bl/6J mice [1]; HFD-fed mice, NA-supplemented diet): back to control levels
- C24:1-lysophosphatidylcholine in liver (C57Bl/6J mice [1]; NA-enriched control and HFDs): elevated
- diacylglyceride C16:0/C24:1 in liver (C57Bl/6J mice [1]; NA-enriched control and HFDs): elevated
- diacylglyceride C18:0/C24:1 in liver (C57Bl/6J mice [1]; NA-enriched control and HFDs): elevated
- diacylglyceride C18:1/C24:1 in liver (C57Bl/6J mice [1]; NA-enriched control and HFDs): elevated
- diacylglyceride C18:2/C24:1 in liver (C57Bl/6J mice [1]; NA-enriched control and HFDs): elevated
- total amounts of ceramides in liver (C57Bl/6J mice [1]; between diet groups with and without NA): consistent between diet groups
- C24:1-hexosylceramide in liver (C57Bl/6J mice [1]; both diets, NA 0.6%): increasing
- C24:1-sphingomyelin in liver (C57Bl/6J mice [1]; both diets, NA 0.6%): increasing
- other ceramides C20-C26 in liver (C57Bl/6J mice [1]; normal and HFD fed groups, NA 0.6% by diet weight): concomitant decreases
- C24:1-ceramides in liver (C57Bl/6J mice [1]; normal and HFD fed groups, ethyl ester of NA 0.6% by diet weight): increases
- C24:1 ceramide after CerS2 knockdown (HEK293 cells): only partially restored
- average body fat content (C57Bl/6J mice [2]; HFD+NA fed animals at the time of sacrifice (HFD: 16.44 g/mouse)): 9.48 g/mouse
- fat mass (C57Bl/6J mice [2]; HFD+NA versus HFD): reduction in fat mass
- lean mass (C57Bl/6J mice [2]; HFD+NA versus HFD): slightly, but significantly, reduced
- lean mass (C57Bl/6J mice [2]; HFD+NA versus control or control+NA groups): not significantly different
- water mass (C57Bl/6J mice [2]; all experimental groups): similar
- lean mass (C57Bl/6J mice [2]; control+NA versus control): not significantly different
- average food consumption (C57Bl/6J mice [3]; HFD+NA versus HFD, 12 weeks): similar
- food consumption (C57Bl/6J mice [3]; control+NA versus control): not significantly different
- fasting (basal) plasma insulin levels (C57Bl/6J mice [4]): significantly reduced
- fasting (basal) plasma insulin levels (C57Bl/6J mice [4]; listed as nervonic acid): reduced insulin levels
- increase in insulin after intraperitoneal administration of glucose (C57Bl/6J mice [4]): no such increase
- increase in insulin after intraperitoneal administration of glucose (C57Bl/6J mice [4]; listed as nervonic acid): not observed
- fasting plasma insulin levels (C57Bl/6J mice [4]): did not affect insulin levels
- fasting plasma insulin levels (C57Bl/6J mice [4]; listed as nervonic acid): did not influence insulin levels
- ambulatory activity (C57Bl/6J mice [5]; HFD+NA versus HFD): similar
- oxygen consumption (VO2) (C57Bl/6J mice [5]; HFD+NA versus HFD, light and dark cycle): significantly lower
- carbon dioxide production (VCO2) (C57Bl/6J mice [5]; HFD+NA versus control and HFD groups): significant reduction
- ambulatory activity (C57Bl/6J mice [5]; control+NA versus control): similar
- heat production (C57Bl/6J mice [5]; control+NA versus control): No differences
- respiratory exchange ratio (RER) (C57Bl/6J mice [5]; control+NA versus control, light and dark cycles): No statistical changes
